Reference: patent US20210355223A1, “Combinations for Treating Cancer” (Pfizer Inc., priority 2018, published 2021)

Biological target: IL-2Rαβ (Homo sapiens, UniProt P01589+P14784)
Details: relative to IL-2 as standard
Source text: The term “CD-122-biased cytokine agonist”, as used herein, refers to an agonist that has a greater affinity for binding to IL-2Rβ than to IL-2Rαβ.

Chain of IL-2Rαβ (P01589 22-240 limits assumed): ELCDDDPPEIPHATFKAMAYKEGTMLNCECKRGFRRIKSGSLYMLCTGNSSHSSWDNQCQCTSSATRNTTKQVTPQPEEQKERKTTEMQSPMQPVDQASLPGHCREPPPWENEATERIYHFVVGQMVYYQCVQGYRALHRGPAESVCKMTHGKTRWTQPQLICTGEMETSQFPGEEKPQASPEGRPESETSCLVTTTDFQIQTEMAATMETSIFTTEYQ
Chain of IL-2Rαβ (P14784 27-240 limits assumed): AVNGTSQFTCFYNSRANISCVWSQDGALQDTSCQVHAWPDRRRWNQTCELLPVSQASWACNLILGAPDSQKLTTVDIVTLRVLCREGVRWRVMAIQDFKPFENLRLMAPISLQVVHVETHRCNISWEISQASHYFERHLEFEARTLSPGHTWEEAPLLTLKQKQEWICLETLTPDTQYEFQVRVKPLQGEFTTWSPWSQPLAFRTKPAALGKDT

decrease in affinity to IL-2Rαβ relative to IL-2: ~60 fold
Substance: (2,7-(bis-methoxyPEG10kD-carboxyamide)(9H-fluorene-9-yl)methyl N-carbamate)6avginterleukin-2 [bempegaldesleukin]
